Data reported in patent publication US5364876A, “Omega-[2-(alkyl)phenyl]-2-aminoalkanoic acids as antagonists of excitatory amino acid receptors” (Guilford Pharmaceuticals Inc., priority 1992, dated 1994).
Where “and” joins values, the source holds several entries; their conditions need not be identical. Equal entries are not always repeated.

Tests used:
[1] = test system: NMDA receptors; settings: U.S. Pat. No. 4,657,899; cited from earlier work
[2] = test system: kainate receptors; settings: U.S. Pat. No. 4,657,899, Table I; cited from earlier work
[3] = biological target: KA receptor; assay: KA receptor ligand binding; design: species or system rat
[4] = biological target: T1, strychnine insensitive glycine site (Rattus norvegicus, UniProt P35439); assay: Strychnine insensitive glycine binding; settings: read-out: Receptor Potency (Ki), Glycine
T1 construct: from tissue

[5] = biological target: AMPA receptors; assay: [3H]AMPA displacement binding; settings: for Ki: [3H]AMPA displacement, read-out: Receptor Potency (Ki), AMPA
[6] = biological target: GLU (NMDA receptors); assay: GLU receptor ligand binding (NMDA receptors); settings: read-out: Receptor Potency (Ki), GLU
[7] = biological target: KA receptors (kainic acid-induced currents); assay: Inhibition of KA-induced currents in rat brain mRNA-injected Xenopus oocytes; assay type: cell-based; settings: Xenopus oocytes injected with rat brain mRNA; IC50 converted to Ki by Cheng-Prusoff equation
Procedure: (§1) Defolliculated oocytes obtained from Xenopus laevis females were injected with 30-75 ng of poly (A+) mRNA obtained from 21-day old male Sprague-Dawley rats. Oocytes were placed individually in […] of antibiotic-supplemented modified Barthes solution (MBS, containing in mM: NaCl, 88; KCl, 1.0; NaHCO3, 2.4; HEPES, 10;MgSO4, 0.82; Ca(NO3)2, 0.33) in 96-well sterile plates and cultured for 48-120 hours prior to experimentation. Oocytes were inspected every 24 hours at which time the bathing solution is replaced with fresh MBS.
(§2) For electrophysiological studies, oocytes were positioned in a small recording chamber ([…]) and superfused with antibiotic free MBS supplemented with CaCl2 (final concentration=1.4 mM). Oocytes are impaled with a single glass microelectrode, voltage clamped at -60 to -70 mV, and perfused by gravity feed at a rate of […] at room temperature. […] Antagonists are coperfused with agonists. MBS used in NMDA assays were prepared from "glycine-free", deionized water
(§3) Potencies to inhibit kainic acid-, AMPA- and […] currents are determined from concentration-response curves. IC50 values are converted to Ki values for comparison purposes using the Cheng-Prusoff equation.

[8] = biological target: AMPA receptors (AMPA-induced currents); assay: Inhibition of AMPA-induced currents in rat brain mRNA-injected Xenopus oocytes; assay type: cell-based; settings: Xenopus oocytes injected with rat brain mRNA; IC50 converted to Ki by Cheng-Prusoff equation
Procedure: as §1, §2, §3

[9] = biological target: CNQX labeled non-NMDA receptors; assay: CNQX-labeled non-NMDA receptor binding; settings: read-out: Receptor Potency (Ki), CNQX

SMILES | NMDA antagonist activity [1] | binding affinity for kainate receptors [2] | Ki [4] [µM] | Ki [6] [µM] | Ki, inhibition of KA-induced currents [7] | further results
NC(Cc1ccccc1CCP(=O)(O)O)C(=O)O (stereo not drawn) [2-amino-3-[2-(2-phosphonoethyl)phenyl]propanoic acid] | antagonists of NMDA | very low binding affinity | – | – | – | –
NC(Cc1ccccc1CCCP(=O)(O)O)C(=O)O (stereo not drawn) [2-amino-3-[2-(3-phosphonopropyl)phenyl]propanoic acid] | antagonists of NMDA | very low binding affinity | – | – | – | –
NC(Cc1ccccc1CP(=O)(O)O)C(=O)O (stereo not drawn) [2-amino-3-[2-phosphonomethylphenyl]propanoic acid] | antagonists of NMDA | very low binding affinity | – | – | – | –
NC(CCCc1ccccc1CP(=O)(O)O)C(=O)O (stereo not drawn) [2-amino-5-[2-phosphonomethylphenyl]pentanoic acid] | antagonists of NMDA | very low binding affinity | – | – | – | –
NC(Cc1cc(F)ccc1CCC(=O)O)C(=O)O (stereo not drawn) [Example 5a] | – | – | 41 | > 300 | > 50 µM | Receptor Potency (Ki), KA [3]: 475 µM; Ki [5]: 168 µM
NC(Cc1cc(Cl)ccc1CCC(=O)O)C(=O)O (stereo not drawn) [Example 5b] | – | – | 9 | > 300 | 32 µM | Receptor Potency (Ki), KA [3]: 506 µM; selectivity for AMPA versus NMDA receptors ([5]; Ki GLU >300 μM versus Ki AMPA 51 μM): at least six-fold selective; Ki [5]: 51 µM; Ki [8]: 96 µM
Cc1cc(C)c(CCC(=O)O)c(C[C@H](N)C(=O)O)c1 [Example 5c, 3,5-Dimethyl-2-(2'-carboxyethyl)phenylalanine] | – | – | 211 | > 1000 | 84 µM | –
Cc1ccc(CCCC(=O)O)c(C[C@H](N)C(=O)O)c1 [Example 26, 5-Methyl-2-(3'-carboxypropyl) phenylalanine] | – | – | 2400 | > 1000 | 13 µM and 13.3 µM | Ki [9]: 8.4 µM
